Reference: PMC4979471 (Cell Death Discovery, 2015)
Read-outs that look alike come from different tables or passages of the source.

Assays:
Test in all cases: Kinase selectivity, P33-radiolabeled assay
Type in all cases: biochemical
Conditions in all cases: 10 μM ATP
RIPK5 = molecular target: T1, RIPK5 (Homo sapiens, UniProt Q6XUX3)
T1 construct: purchased Reaction Biology Corp
T1 sequence (Q6XUX3 1-929): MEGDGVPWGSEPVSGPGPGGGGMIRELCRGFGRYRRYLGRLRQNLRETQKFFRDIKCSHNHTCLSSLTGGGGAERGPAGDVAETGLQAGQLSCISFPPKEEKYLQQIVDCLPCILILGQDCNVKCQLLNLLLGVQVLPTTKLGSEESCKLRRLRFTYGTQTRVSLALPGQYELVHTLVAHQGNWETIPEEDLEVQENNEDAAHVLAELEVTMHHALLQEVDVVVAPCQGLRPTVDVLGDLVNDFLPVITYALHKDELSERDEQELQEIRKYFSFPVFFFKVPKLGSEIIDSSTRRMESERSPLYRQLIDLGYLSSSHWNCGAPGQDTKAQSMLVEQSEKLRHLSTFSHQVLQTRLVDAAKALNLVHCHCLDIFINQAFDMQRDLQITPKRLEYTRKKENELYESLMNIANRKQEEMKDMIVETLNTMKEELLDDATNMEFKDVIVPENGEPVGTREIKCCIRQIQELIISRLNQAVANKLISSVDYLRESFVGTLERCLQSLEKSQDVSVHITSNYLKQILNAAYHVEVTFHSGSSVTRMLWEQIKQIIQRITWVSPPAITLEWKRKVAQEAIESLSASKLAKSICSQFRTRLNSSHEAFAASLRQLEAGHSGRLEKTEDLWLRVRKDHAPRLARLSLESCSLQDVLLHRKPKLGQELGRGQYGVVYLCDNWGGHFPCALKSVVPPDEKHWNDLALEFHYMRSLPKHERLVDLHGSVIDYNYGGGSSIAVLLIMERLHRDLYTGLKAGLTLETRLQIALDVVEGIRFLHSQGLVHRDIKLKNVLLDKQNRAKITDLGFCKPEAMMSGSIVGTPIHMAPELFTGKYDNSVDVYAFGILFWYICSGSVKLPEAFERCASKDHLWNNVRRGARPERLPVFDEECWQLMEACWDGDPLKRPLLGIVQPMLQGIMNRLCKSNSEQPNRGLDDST
Procedure, shortened: (§1)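 Values show % enzyme activity normalised to DMSO vehicle. They come from one 10 μM compound concentration run twice, at an ATP level of 10 μM.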

DMPK = molecular target: T2, DMPK (Homo sapiens, UniProt Q09013)
T2 construct: purchased Reaction Biology Corp
T2 sequence (Q09013 1-629): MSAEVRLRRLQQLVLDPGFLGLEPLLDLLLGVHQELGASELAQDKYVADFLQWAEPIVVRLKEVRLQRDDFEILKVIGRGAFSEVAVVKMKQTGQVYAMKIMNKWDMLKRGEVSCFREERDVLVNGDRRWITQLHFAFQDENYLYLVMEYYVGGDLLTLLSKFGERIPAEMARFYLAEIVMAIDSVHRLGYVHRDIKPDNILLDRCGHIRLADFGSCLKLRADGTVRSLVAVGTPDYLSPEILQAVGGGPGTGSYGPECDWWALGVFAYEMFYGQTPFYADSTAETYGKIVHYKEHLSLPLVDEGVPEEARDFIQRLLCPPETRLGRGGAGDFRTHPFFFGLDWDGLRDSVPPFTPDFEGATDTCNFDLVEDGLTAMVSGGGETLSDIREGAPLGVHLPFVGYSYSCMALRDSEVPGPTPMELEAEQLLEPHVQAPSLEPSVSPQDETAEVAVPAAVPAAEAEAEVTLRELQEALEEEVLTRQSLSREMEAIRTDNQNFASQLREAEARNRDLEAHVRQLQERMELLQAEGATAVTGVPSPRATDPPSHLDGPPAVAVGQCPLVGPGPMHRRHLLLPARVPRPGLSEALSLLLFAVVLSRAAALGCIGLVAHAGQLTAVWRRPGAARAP
Procedure, shortened: as §1

EPHB2 = molecular target: T3, EPHB2 (Homo sapiens, UniProt P29323)
T3 construct: purchased Reaction Biology Corp
T3 sequence (P29323 19-1055): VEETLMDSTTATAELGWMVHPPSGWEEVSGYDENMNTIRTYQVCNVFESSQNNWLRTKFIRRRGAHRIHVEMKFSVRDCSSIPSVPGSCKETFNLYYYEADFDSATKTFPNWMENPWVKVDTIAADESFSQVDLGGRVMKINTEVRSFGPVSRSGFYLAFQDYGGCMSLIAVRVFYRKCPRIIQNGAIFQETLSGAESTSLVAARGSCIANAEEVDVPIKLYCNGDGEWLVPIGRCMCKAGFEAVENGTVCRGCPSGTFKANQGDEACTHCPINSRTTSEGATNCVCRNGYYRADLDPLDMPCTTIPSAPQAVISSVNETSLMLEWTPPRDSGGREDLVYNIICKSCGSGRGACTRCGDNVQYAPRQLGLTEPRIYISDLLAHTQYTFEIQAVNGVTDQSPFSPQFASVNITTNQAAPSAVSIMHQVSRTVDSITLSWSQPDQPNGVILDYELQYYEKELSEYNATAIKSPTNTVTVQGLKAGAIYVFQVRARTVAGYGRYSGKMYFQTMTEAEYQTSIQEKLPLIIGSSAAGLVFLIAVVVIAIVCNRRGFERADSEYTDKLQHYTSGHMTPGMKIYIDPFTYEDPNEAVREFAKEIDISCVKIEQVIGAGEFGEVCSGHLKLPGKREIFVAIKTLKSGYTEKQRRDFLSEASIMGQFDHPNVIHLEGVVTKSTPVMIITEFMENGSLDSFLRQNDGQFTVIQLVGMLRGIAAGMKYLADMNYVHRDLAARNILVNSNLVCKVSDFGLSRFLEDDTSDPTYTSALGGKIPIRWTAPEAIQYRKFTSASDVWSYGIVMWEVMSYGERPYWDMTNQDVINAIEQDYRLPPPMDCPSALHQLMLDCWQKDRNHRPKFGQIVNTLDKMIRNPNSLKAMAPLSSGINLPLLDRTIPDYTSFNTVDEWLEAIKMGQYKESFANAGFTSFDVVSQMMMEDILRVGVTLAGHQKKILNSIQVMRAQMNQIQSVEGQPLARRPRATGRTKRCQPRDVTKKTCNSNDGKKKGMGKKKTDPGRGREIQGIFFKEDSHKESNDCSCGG
Procedure, shortened: as §1

EPHA5 = molecular target: T4, EPHA5 (Homo sapiens, UniProt P54756)
T4 construct: purchased Reaction Biology Corp
T4 sequence (P54756 25-1037): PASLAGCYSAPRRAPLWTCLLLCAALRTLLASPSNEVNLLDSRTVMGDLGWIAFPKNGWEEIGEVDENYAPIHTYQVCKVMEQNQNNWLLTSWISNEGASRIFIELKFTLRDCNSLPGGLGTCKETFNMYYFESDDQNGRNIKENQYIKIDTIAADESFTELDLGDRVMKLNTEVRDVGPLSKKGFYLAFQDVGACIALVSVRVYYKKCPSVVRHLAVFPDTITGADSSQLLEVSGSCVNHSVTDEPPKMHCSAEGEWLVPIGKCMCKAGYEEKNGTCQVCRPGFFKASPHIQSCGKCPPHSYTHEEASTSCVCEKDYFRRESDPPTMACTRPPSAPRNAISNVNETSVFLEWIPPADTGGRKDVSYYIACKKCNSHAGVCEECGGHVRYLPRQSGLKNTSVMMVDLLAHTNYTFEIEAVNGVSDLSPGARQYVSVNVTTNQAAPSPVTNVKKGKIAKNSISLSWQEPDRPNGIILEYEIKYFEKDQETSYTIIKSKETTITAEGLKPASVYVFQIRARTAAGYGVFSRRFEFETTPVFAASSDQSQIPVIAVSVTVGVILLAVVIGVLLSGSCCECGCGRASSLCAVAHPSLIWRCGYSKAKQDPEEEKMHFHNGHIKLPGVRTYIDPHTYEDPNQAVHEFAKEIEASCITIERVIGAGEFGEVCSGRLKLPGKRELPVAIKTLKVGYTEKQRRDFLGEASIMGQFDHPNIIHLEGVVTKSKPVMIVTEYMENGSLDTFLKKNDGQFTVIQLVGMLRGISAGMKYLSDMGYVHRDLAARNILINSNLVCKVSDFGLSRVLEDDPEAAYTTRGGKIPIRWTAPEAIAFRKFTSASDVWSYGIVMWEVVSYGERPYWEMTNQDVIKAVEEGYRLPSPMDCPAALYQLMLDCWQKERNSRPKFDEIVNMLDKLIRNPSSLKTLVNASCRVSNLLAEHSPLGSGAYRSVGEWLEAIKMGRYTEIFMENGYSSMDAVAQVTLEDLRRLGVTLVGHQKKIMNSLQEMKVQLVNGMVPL
Procedure, shortened: as §1

JAK2 = molecular target: T5, JAK2 (Homo sapiens, UniProt O60674)
T5 construct: purchased Reaction Biology Corp
T5 sequence (O60674 whole entry): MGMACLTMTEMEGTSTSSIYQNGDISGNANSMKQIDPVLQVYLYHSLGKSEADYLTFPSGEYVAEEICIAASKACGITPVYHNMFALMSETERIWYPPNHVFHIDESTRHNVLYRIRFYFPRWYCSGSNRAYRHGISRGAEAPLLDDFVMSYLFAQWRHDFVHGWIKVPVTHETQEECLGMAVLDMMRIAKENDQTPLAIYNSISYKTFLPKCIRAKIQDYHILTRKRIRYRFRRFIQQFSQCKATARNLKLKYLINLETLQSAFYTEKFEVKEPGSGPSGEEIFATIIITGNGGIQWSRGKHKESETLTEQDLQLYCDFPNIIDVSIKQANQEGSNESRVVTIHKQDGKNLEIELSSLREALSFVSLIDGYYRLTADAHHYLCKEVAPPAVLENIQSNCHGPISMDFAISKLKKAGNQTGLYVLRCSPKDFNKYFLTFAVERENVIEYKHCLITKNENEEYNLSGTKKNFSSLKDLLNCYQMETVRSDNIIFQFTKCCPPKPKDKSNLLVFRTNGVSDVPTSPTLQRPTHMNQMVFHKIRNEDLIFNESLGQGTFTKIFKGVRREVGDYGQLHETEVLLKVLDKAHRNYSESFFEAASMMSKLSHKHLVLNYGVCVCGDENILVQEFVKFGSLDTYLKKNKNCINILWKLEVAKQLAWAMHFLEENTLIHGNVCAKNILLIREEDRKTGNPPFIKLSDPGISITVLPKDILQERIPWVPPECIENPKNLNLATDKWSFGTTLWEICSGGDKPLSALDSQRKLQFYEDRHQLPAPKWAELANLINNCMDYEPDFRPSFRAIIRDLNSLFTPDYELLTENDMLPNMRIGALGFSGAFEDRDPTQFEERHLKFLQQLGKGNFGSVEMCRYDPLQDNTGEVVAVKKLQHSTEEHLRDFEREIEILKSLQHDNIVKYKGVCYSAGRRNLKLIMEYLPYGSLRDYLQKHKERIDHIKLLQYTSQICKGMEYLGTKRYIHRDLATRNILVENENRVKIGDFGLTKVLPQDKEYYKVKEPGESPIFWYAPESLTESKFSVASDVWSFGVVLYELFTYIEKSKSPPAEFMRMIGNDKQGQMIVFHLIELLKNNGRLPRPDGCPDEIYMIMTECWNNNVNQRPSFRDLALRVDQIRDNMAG
Procedure, shortened: as §1

[1] = read-out: % Enzyme Activity (relative to DMSO controls) AVG
[2] = read-out: % Enzyme Activity (relative to DMSO controls) Data 1
[3] = read-out: % Enzyme Activity (relative to DMSO controls) Data 2

**Q.** With `CC(C)(C)C(=O)N1N=CC[C@H]1c1ccccc1` [GSK′963] as the molecule, how does the remaining activity at 10 µM (RIPK5; [1]) read?
**A.** 101%

**Q.** And the remaining activity at 10 µM (RIPK5; [2])?
**A.** 102%

**Q.** And the remaining activity at 10 µM (RIPK5; [3])?
**A.** 99.6%

**Q.** What about the remaining activity at 10 µM (DMPK; [1]) of the same molecule?
**A.** 99.2%

**Q.** And the remaining activity at 10 µM (DMPK; [2])?
**A.** 97.5%

**Q.** And the remaining activity at 10 µM (DMPK; [3])?
**A.** 101%

**Q.** And the remaining activity at 10 µM (EPHB2; [1])?
**A.** 105%

**Q.** And the remaining activity at 10 µM (EPHB2; [2])?
**A.** 108%

**Q.** What about the remaining activity at 10 µM (EPHB2; [3]) of the same molecule?
**A.** 102%

**Q.** And the remaining activity at 10 µM (EPHA5; [1])?
**A.** 107%

**Q.** What about the remaining activity at 10 µM (EPHA5; [2]) of the same molecule?
**A.** 105%

**Q.** What about the remaining activity at 10 µM (EPHA5; [3]) of the same molecule?
**A.** 108%

**Q.** What about the remaining activity at 10 µM (JAK2; [1]) of the same molecule?
**A.** 105%

**Q.** What about the remaining activity at 10 µM (JAK2; [2]) of the same molecule?
**A.** 105%

**Q.** And the remaining activity at 10 µM (JAK2; [3])?
**A.** 105%
